Positions of bridges follow the written chain, without caps; N, C: chain ends. Non-standard residues stand in square brackets, D forms with d. Residues, ends and D or L forms follow the SMILES beside them. ξ: configuration not given here. *: point of attachment. X1 = CCN([C@@H](C)C(=O)C[C@@H](CCCCNC(=O)CCC(F)(F)C(F)(F)C(F)(F)C(F)(F)C(F)(F)C(F)(F)C(F)(F)C(F)(F)F)C(=O)NCC(N)=O)*; Ile(3ξ) = CCC(C)[C@H](N)C(=O)O

Data set [1] is described as follows: Human plasma stability (HPLC-MS/MS). The following applies: 37° C.; for half-life at 1 μM: human, plasma, Human plasma stability (t1/2); for Human plasma stability (t1/2): 1 μM.
Procedure: (§1) This procedure is designed to determine the stability of a test compound in blood or plasma from human or animal species in a 96-well plate format. The test compound is quantified at 5 time points by HPLC-MS/MS analysis.
(§2) Test concentration: 1 μM with a final DMSO concentration of 0.5%.
(§3) Experimental protocol : Blood or plasma are pre-warmed at 37° C. water bath for 5 min, followed by addition of the test compound. The incubation is performed in a 37° C. water bath for 2 h. An aliquot of the incubation mixture is transferred to acetonitrile at 0, 0.5, 1, 1.5 and 2 h, respectively. Samples are then mixed and centrifuged. Supernatants are used for HPLC-MS/MS analysis. Reference compounds Propoxycaine and propantheline are tested simultaneously with the test compound in each assay. Analytical methods Samples are analyzed by HPLC-MS/MS using selected reaction monitoring. The HPLC system consists of a binary LC pump with autosampler, a C-18 column, and a gradient. Conditions may be adjusted as necessary. Data analysis Peak areas corresponding to the test compound are recorded. The compound remaining (%) is calculated by comparing the peak area at each time point to time zero. The half-life is calculated from the slope of the initial linear range of the logarithmic curve of compound remaining (%) vs. time, assuming first order kinetics
(§4) Test concentration: 1 μM with a final DMSO concentration of 0.5%. Experimental protocol: Blood or plasma are pre-warmed at 37° C. water bath for 5 min, followed by addition of the test compound. The incubation is performed in a 37° C. water bath for 2 h. An aliquot of the incubation mixture is transferred to acetonitrile at 0, 0.5, 1, 1.5 and 2 h, respectively. Samples are then mixed and centrifuged. Supernatants are used for HPLC-MS/MS analysis. Reference compounds Propoxycaine and propantheline are tested simultaneously with the test compound in each assay. Analytical methods Samples are analyzed by HPLC-MS/MS using selected reaction monitoring. The HPLC system consists of a binary LC pump with autosampler, a C-18 column, and a gradient. Conditions may be adjusted as necessary. Data analysis Peak areas corresponding to the test compound are recorded. The compound remaining (%) is calculated by comparing the peak area at each time point to time zero. The half-life is calculated from the slope of the initial linear range of the logarithmic curve of compound remaining (%) vs. time, assuming first order kinetics
(§5) Test concentration: 1 μM with a final DMSO concentration of 0.5%. Experimental protocol: Blood or plasma are pre-warmed at 37° C. water bath for 5 min, followed by addition of the test compound. The incubation is performed in a 37° C. water bath for 2 h. An aliquot of the incubation mixture is transferred to acetonitrile at 0, 0.5, 1, 1.5 and 2 h, respectively. Samples are then mixed and centrifuged. Supernatants are used for HPLC-MS/MS analysis. Reference compounds Propoxycaine and propantheline are tested simultaneously with the test compound in each assay. Analytical methods Samples are analyzed by HPLC-MS/MS using selected reaction monitoring. The HPLC system consists of a binary LC pump with autosampler, a C-18 column, and a gradient. Conditions may be adjusted as necessary. Data analysis Peak areas corresponding to the test compound are recorded. The compound remaining (%) is calculated by comparing the peak area at each time point to time zero. The half-life is calculated from the slope of the initial linear range of the logarithmic curve of compound remaining (%) vs. time, assuming first order kinetics.
Data set [2] can be described thus: Solubility study in water by visual observation.
Procedure: (§6) The resulting solution was vortexed 1 min following by 1 min in bath sonication. Solubility was then assessed by visual observation of the resulting dispersion (Clear/Cloudy and presence of particulates).
The target in data set [3] is T1, human vasopressin Oxytocin receptor (Homo sapiens, UniProt P30559).
T1 construct: expressed in transfected cells; host or cells: Chem-1 cells (membrane homogenates)
T1 sequence (P30559 1-389): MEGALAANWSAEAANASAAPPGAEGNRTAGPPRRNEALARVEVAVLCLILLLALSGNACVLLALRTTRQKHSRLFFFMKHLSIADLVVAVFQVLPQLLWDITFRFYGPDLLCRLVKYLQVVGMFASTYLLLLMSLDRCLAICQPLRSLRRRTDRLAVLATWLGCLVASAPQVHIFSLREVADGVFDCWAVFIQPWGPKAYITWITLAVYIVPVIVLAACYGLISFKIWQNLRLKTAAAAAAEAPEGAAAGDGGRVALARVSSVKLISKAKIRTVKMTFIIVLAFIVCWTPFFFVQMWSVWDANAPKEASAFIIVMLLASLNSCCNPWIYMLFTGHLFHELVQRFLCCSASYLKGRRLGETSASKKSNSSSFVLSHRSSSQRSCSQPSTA
Kind of data set: Radioligand binding assay, human oxytocin receptor in transfected Chem-1 cells. The following applies: read-out: Affinity % of inhibition à 10 nM. The method, then:
Experimental protocol: […] Following incubation, the samples are filtered rapidly under vacuum through glass fiber filters (GF/B, Packard) presoaked with 0.3% PEI and rinsed several times with ice-cold 50 mM Tris-HCl and 0.1% BSA using a 96-sample cell harvester (Unifilter, Packard). The filters are dried then counted for radioactivity in a scintillation counter (Topcount, Packard) using a scintillation cocktail (Microscint 0, Packard). The results are expressed as a percent inhibition of the control radioligand specific binding.

A short description of data set [4]: physchem.
Procedure: as §6
A short description of data set [5]: in vitro. The following applies: human, plasma, Human plasma stability (t1/2).
Procedure: as §1, §2, §3, §4, §5

The half-life is the time needed for the level to fall by half in the phase considered. A low value points to rapid decline. Consider `CSCC[C@H](NC(=O)[C@@H]1CCCN1C(=O)CNC(=O)[C@H](CCCCN)NC(=O)[C@H](Cc1c[nH]cn1)NC(=O)[C@H](CO)NC(=O)[C@H](CC(C)C)NC(=O)[C@H](CCCNC(=N)N)NC(=O)[C@@H]1CCCN1C(=O)[C@H](CCCNC(=N)N)NC(=O)[C@H](CCC(N)=O)NC(=O)[C@@H](N)CCCCNC(=O)CCC(F)(F)C(F)(F)C(F)(F)C(F)(F)C(F)(F)C(F)(F)C(F)(F)C(F)(F)F)C(=O)N1CCC[C@H]1C(=O)N[C@@H](Cc1ccccc1)C(=O)O` [LE-124], for which the half-life at 1 μM in data set [1] (apelin analogs table) worked out at 357 min.
For orientation: solubility means how much of the substance goes into solution per volume. A low value points to a poorly soluble substance. In turn, `CC[C@H](C)[C@H](NC(=O)[C@H](Cc1ccc(O)cc1)NC(=O)[C@@H](NC(=O)[C@H](CCCNC(=N)N)NC(=O)[C@@H](N)CC(=O)O)C(C)C)C(=O)N[C@@H](Cc1cnc[nH]1)C(=O)N1CCC[C@H]1C(=O)N[C@@H](Cc1ccccc1)C(=O)O` [Angiotensin II, reference compound] returned a solubility at 2 min in data set [2] above 100 µM.
The inhibition is the relative decrease from the control value, in per cent. For `CCC(C)[C@@H]1NC(=O)[C@H](Cc2ccc(O)cc2)NC(=O)[C@@H](N)CSSC[C@@H](C(=O)N(CC)[C@@H](C)C(=O)C[C@@H](CCCCNC(=O)CCC(F)(F)C(F)(F)C(F)(F)C(F)(F)C(F)(F)C(F)(F)C(F)(F)C(F)(F)F)C(=O)NCC(N)=O)NC(=O)[C@H](CC(N)=O)NC(=O)[C@H](CCC(N)=O)NC1=O` (some centres unmarked) [SR-11-74] (H-CY[Ile(3ξ)]QNC-X1; disulfide 1-6), in data set [3], the inhibition at 0.01 µM was 91.3%. The solubility at 2 min in data set [4] is above 100 µM. In data set [1] (oxytocin analogs table), this compound displayed a half-life at 1 μM of 239 min.
Regarding `CC[C@H](C)[C@H](NC(=O)[C@H](Cc1ccc(O)cc1)NC(=O)[C@@H](NC(=O)[C@H](CCCNC(=N)N)NC(=O)[C@H](CC(=O)O)NC(=O)CCC(F)(F)C(F)(F)C(F)(F)C(F)(F)C(F)(F)C(F)(F)C(F)(F)C(F)(F)F)C(C)C)C(=O)N[C@@H](Cc1cnc[nH]1)C(=O)N1CCC[C@H]1C(=O)N[C@@H](Cc1ccccc1)C(=O)O` [LE120], the solubility at 2 min in data set [2] was above 100 µM. In addition, in data set [1] (angiotensin II analogs table), the “Human plasma stability (t1/2)” value is above 1440 min and the half-life at 1 μM is above 1440 min.
`CSCC[C@H](NC(=O)[C@@H]1CCCN1C(=O)CNC(=O)[C@H](CCCCN)NC(=O)[C@H](Cc1c[nH]cn1)NC(=O)[C@H](CO)NC(=O)[C@H](CC(C)C)NC(=O)[C@H](CCCNC(=N)N)NC(=O)[C@@H]1CCCN1C(=O)[C@H](CCCNC(=N)N)NC(=O)[C@H](CCC(N)=O)NC(=O)CCC(F)(F)C(F)(F)C(F)(F)C(F)(F)C(F)(F)C(F)(F)C(F)(F)C(F)(F)F)C(=O)N1CCC[C@H]1C(=O)N[C@@H](Cc1ccccc1)C(=O)O` [LE-122] had a solubility at 2 min in data set [4] above 100 µM. Further, in data set [1] (apelin analogs table), the “Human plasma stability (t1/2)” value turned out to be 1241 min and the half-life at 1 μM is above 1240 min.
Regarding `CC[C@H](C)[C@@H]1NC(=O)[C@H](Cc2ccc(O)cc2)NC(=O)[C@@H](N)CSSC[C@@H](C(=O)N2CCC[C@H]2C(=O)N[C@@H](CC(C)C)C(=O)NCC(N)=O)NC(=O)[C@H](CC(N)=O)NC(=O)[C@H](CCC(N)=O)NC1=O` [Oxytocin, reference compound], the inhibition at 0.01 µM in data set [3] is 102%. Further, in data set [4], the solubility at 2 min is above 100 µM. Further, the half-life at 1 μM in data set [5] was 147 min.

Values taken from patent US20230173076A1, “METABOLICALLY STABLE PEPTIDE ANALOGS” (UNIVERSITÉ DE STRASBOURG, priority 2016, published 2023).
